Literature values in patent publication US20050042271A1, “Transdermal delivery system for alkaloids of aconitum species” (priority 1999, published 2005).

Tests used:
[1] = all layers of epidermis and dermis; irreversible damage, scarring

Row | Compound | affinity for opioid receptors (opioid receptors) | skin irritation [1]
1 | bulleyaconitine A | without affinity for opioid receptors | 
2 | CCN1C[C@]2(OC(=O)c3ccccc3NC(C)=O)CC[C@H](OC)[C@@]34[C@@H]2C[C@@H]([C@@H]13)[C@@]1(O)C[C@H](OC)[C@H]2C[C@@H]4[C@]1(O)[C@H]2OC [lappaconitine] | without affinity for opioid receptors | 
3 | CCCCCCCCCCCCN1CCCCCC1=O [Azone, laurocapram] |  | severe skin irritation
4 | CCN1C[C@@]2(COC)[C@H]3[C@@H](OC)[C@H]4[C@@H]1[C@]3([C@@H](OC)C[C@H]2OC(C)=O)[C@@H]1C[C@@]2(O)[C@H](OC(=O)c3ccccc3)[C@@H]1[C@]4(OC(C)=O)[C@@H](O)[C@@H]2OC [3-acetylaconitine] | without affinity for opioid receptors | 
